Laboratory results from patent publication US20020049223A1, “Quinoline and naphthyridine carboxylic acid antibacterials” (priority 1999, published 2002).

Legend:
Assay in all cases: Assay B: in vitro antibacterial activity, broth microdilution MIC (NCCLS)
Assay type in all cases: cell-based
Escherichia coli JUHL = conditions: Table 2, Assay B, cation-adjusted Mueller Hinton broth, 35° C., 16 to 20 hr; code D = Escherichia coli JUHL; unit assumed
Outline: (§1)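 Growth inhibition read by eye after incubation at 35° C (16 to 20 hr; 20 to 24 hr for S. pneumoniae and H. influenzae). Medium: cation-adjusted Mueller Hinton broth, supplemented with 3% lysed horse blood or with 5 g/L yeast extract, 0.3 mmol/L hematin and 15 mg/L NAD, respectively.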

[1] = system: Enterococcus faecalis PIU 1967; conditions: Table 2, Assay B, cation-adjusted Mueller Hinton broth, 35° C., 16 to 20 hr; code B = Enterococcus faecalis PIU 1967; unit assumed
Outline: as §1

[2] = system: Streptococcus pneumoniae ATCC 6303; conditions: Table 2, Assay B, Mueller Hinton broth with 3% lysed horse blood, 20 to 24 hr; code F = Streptococcus pneumoniae ATCC 6303; unit assumed
Outline: as §1

[3] = system: Staphylococcus aureus ATCC 6538P; conditions: Table 2, Assay B, cation-adjusted Mueller Hinton broth, 35° C., 16 to 20 hr; code A = Staphylococcus aureus ATCC 6538P; unit assumed
Outline: as §1

[4] = system: Haemophilus influenzae DILL AMP R; conditions: Table 2, Assay B, Mueller Hinton broth with yeast extract, hematin and NAD, 20 to 24 hr; code E = Haemophilus influenzae DILL AMP R; unit assumed
Outline: as §1

Row | Structure (SMILES) | Antibacterial Activity (MIC's), D (Escherichia coli JUHL) [µg/mL] | Antibacterial Activity (MIC's), B [1] [µg/mL] | Antibacterial Activity (MIC's), F [2] [µg/mL] | Antibacterial Activity (MIC's), A [3] [µg/mL] | Antibacterial Activity (MIC's), E [4] [µg/mL]
1 | COc1c(-c2cc3c(s2)CNCC3O)ccc2c(=O)c(C(=O)O)cn(C3CC3)c12 (stereo not drawn) [Example 209, 1-cyclopropyl-7-(4-hydroxy-4,5,6,7-tetrahydrothieno[2,3-c]pyridin-2-yl)-8-methoxy-4-oxo-1,4-dihydro-3-quinolinecarboxylic acid] | 0.25 | 0.5 | 0.25 | 0.125 | 0.03
2 | CNC1CCCc2sc(-c3c(F)cc4c(=O)c(C(=O)O)cn(C5CC5)c4c3OC)cc21.Cl (stereo not drawn) [Example 210, 1-cyclopropyl-6-fluoro-8-methoxy-7-(4-(methylamino)-4,5,6,7-tetrahydro-1-benzothien-2-yl)-4-oxo-1,4-dihydro-3-quinolinecarboxylic acid hydrochloride] | 0.25 | 0.125 | 0.06 | 0.06 | 0.03
3 | COc1c(-c2cc3c(s2)CCCC3N2CC(N)C2)ccc2c(=O)c(C(=O)O)cn(C3CC3)c12.Cl.Cl (stereo not drawn) [Example 212, 7-[4-(3-amino-1-azetidinyl)-4,5,6,7-tetrahydro-1-benzothien-2-yl]-1-cyclopropyl-8-methoxy-4-oxo-1,4-dihydro-3-quinolinecarboxylic acid dihydrochloride] | 0.5 | 0.5 | 0.125 | 0.125 | 0.25
4 | CNC1CCCc2cc(-c3ccc4c(=O)c(C(=O)O)cn(C5CC5)c4c3OC)sc21.Cl (stereo not drawn) [Example 216, 1-cyclopropyl-8-methoxy-7-(7-(methylamino)-4,5,6,7-tetrahydro-1-benzothien-2-yl)-4-oxo-1,4-dihydro-3-quinolinecarboxylic acid hydrochloride] | 0.25 | 0.25 | 0.125 | 0.06 | 0.125
5 | COc1c(-c2cc3c(s2)C(O)CCC3(C)C)ccc2c(=O)c(C(=O)O)cn(C3CC3)c12 (stereo not drawn) [Example 218, 1-cyclopropyl-7-(7-hydroxy-4,4-dimethyl-4,5,6,7-tetrahydro-1-benzothien-2-yl)-8-methoxy-4-oxo-1,4-dihydro-3-quinolinecarboxylic acid] | 2 | 0.25 | 0.5 | 0.06 | 0.25
6 | COc1c(-c2cc3c(s2)C(N)CCC3(C)C)ccc2c(=O)c(C(=O)O)cn(C3CC3)c12.Cl (stereo not drawn) [Example 222, 7-(7-amino-4,4-dimethyl-4,5,6,7-tetrahydro-1-benzothien-2-yl)-1-cyclopropyl-8-methoxy-4-oxo-1,4-dihydro-3-quinolinecarboxylic acid hydrochloride] | 1 | 0.5 | 0.25 | 0.125 | 0.5
7 | COc1c(-c2cc3c(s2)CCCC3N)c(F)cc2c(=O)c(C(=O)O)cn(C3CC3)c12.Cl (stereo not drawn) [Example 224, 7-(4-amino-4,5,6,7-tetrahydro-1-benzothien-2-yl)-1-cyclopropyl-6-fluoro-8-methoxy-4-oxo-1,4-dihydro-3-quinolinecarboxylic acid hydrochloride] | 0.125 | 0.03 | 0.03 | 0.015 | 0.015
8 | COc1c(-c2cc3c(s2)CNCC3N)ccc2c(=O)c(C(=O)O)cn(C3CC3)c12 (stereo not drawn) [Example 225, 7-(4-amino-4,5,6,7-tetrahydrothieno[2,3-c]pyridin-2-yl)-1-cyclopropyl-8-methoxy-4-oxo-1,4-dihydro-3-quinolinecarboxylic acid] | 1 | 0.5 | 0.25 | 0.5 | 0.125
9 | COc1c(-c2cc3c(s2)CCCC3(C)C)ccc2c(=O)c(C(=O)O)cn(C3CC3)c12 [Example 227, 1-cyclopropyl-7-(4,4-dimethyl-4,5,6,7-tetrahydro-1-benzothien-2-yl)-8-methoxy-4-oxo-1,4-dihydro-3-quinolinecarboxylic acid] | > 64 | 2 | 8 | 0.5 | 2
10 | COc1c(-c2cc3c(s2)C(N)CN(S(C)(=O)=O)C3)ccc2c(=O)c(C(=O)O)cn(C3CC3)c12 (stereo not drawn) [Example 230, 7-(7-amino-5-(methylsulfonyl)-4,5,6,7-tetrahydrothieno[3,2-c]pyridin-2-yl)-1-cyclopropyl-8-methoxy-4-oxo-1,4-dihydro-3-quinolinecarboxylic acid] | 1 | 1 | 0.125 | 0.125 | 0.25

Next, values leading:

Row | Antibacterial Activity (MIC's), D (Escherichia coli JUHL) [µg/mL] | Antibacterial Activity (MIC's), B [1] [µg/mL] | Antibacterial Activity (MIC's), F [2] [µg/mL] | Antibacterial Activity (MIC's), A [3] [µg/mL] | Antibacterial Activity (MIC's), E [4] [µg/mL] | Structure (SMILES)
11 | 0.25 | 0.5 | 0.125 | 0.06 | 0.125 | COc1c(-c2sc3c(c2C)C(N)CCC3)ccc2c(=O)c(C(=O)O)cn(C3CC3)c12.Cl (stereo not drawn) [Example 232, 7-(4-amino-3-methyl-4,5,6,7-tetrahydro-1-benzothien-2-yl)-1-cyclopropyl-8-methoxy-4-oxo-1,4-dihydro-3-quinolinecarboxylic acid hydrochloride]
12 | 2 | 0.5 | 0.5 | 0.03 | 0.5 | COc1c(-c2cc3c(s2)CC(C)(C)CC3O)ccc2c(=O)c(C(=O)O)cn(C3CC3)c12 (stereo not drawn) [Example 234, 1-cyclopropyl-7-(4-hydroxy-6,6-dimethyl-4,5,6,7-tetrahydro-1-benzothien-2-yl)-8-methoxy-4-oxo-1,4-dihydro-3-quinolinecarboxylic acid]
13 | 0.25 | 0.25 | 0.06 | 0.015 | 0.06 | COc1c(-c2cc3c(s2)C(N)C(C)CC3)ccc2c(=O)c(C(=O)O)cn(C3CC3)c12.Cl (stereo not drawn) [Example 235, 7-(7-amino-6-methyl-4,5,6,7-tetrahydro-1-benzothien-2-yl)-1-cyclopropyl-8-methoxy-4-oxo-1,4-dihydro-3-quinolinecarboxylic acid hydrochloride]
14 | 4 | 1 | 4 | 0.125 | 0.5 | COc1c(-c2cc3c(s2)CC(C)(C)CC3)ccc2c(=O)c(C(=O)O)cn(C3CC3)c12 [Example 236, 1-cyclopropyl-7-(6,6-dimethyl-4,5,6,7-tetrahydro-1-benzothien-2-yl)-8-methoxy-4-oxo-1,4-dihydro-3-quinolinecarboxylic acid]
15 | 0.125 | 0.5 | 0.125 | 0.015 | 0.03 | COc1c(-c2cc3c(s2)C(N)C(F)CC3)ccc2c(=O)c(C(=O)O)cn(C3CC3)c12.Cl (stereo not drawn) [Example 237, 7-(7-amino-6-fluoro-4,5,6,7-tetrahydro-1-benzothien-2-yl)-1-cyclopropyl-8-methoxy-4-oxo-1,4-dihydro-3-quinolinecarboxylic acid hydrochloride]
16 | 0.25 | 0.5 | 0.06 | 0.03 | 0.125 | COc1c(-c2cc3c(s2)CC(C)(C)CC3N)ccc2c(=O)c(C(=O)O)cn(C3CC3)c12.Cl (stereo not drawn) [Example 238, 7-(4-amino-6,6-dimethyl-4,5,6,7-tetrahydro-1-benzothien-2-yl)-1-cyclopropyl-8-methoxy-4-oxo-1,4-dihydro-3-quinolinecarboxylic acid hydrochloride]
17 | 32 | 32 | > 64 | 1 | 4 | COc1c(-c2nc3c(s2)C(=O)CCC3)ccc2c(=O)c(C(=O)O)cn(C3CC3)c12 [Example 239, 1-cyclopropyl-8-methoxy-4-oxo-7-(7-oxo-4,5,6,7-tetrahydro-1,3-benzothiazol-2-yl)-1,4-dihydro-3-quinolinecarboxylic acid]
18 | 0.5 | 0.06 | 1 | 0.004 | 0.03 | COc1c(-c2cc3c(s2)C(O)C(F)CC3)ccc2c(=O)c(C(=O)O)cn(C3CC3)c12 (stereo not drawn) [Example 240, 1-cyclopropyl-7-(6-fluoro-7-hydroxy-4,5,6,7-tetrahydro-1-benzothien-2-yl)-8-methoxy-4-oxo-1,4-dihydro-3-quinolinecarboxylic acid]
